pIC50: −log10 of the molar value.
Tests used:
[1] = system: SH rat prostate; test: 5 day systemic administration in male SH rats, prostate; format: in vivo; details: male SH rats, oral daily for 5 days at 50 mg/ml, day 6
Experimental: The effect of test compounds (lonidamine and lonidamine analogs) on the SH rat prostate was determined as follows. The test compound was orally administered daily for 5 days to male, SH rat, (n=6, 14 weeks old, Charles River Labs) at 50 mg/ml concentrations (as a 0.5% carboxymethylcellulose formulation). The control rats received an equal amount of the vehicle ([…]). Blood samples were collected 2 hours after administration on day 6, for pharmokinetic analysis of the compounds. On day 6 the rats were sacrificed and the entire prostate and the individual lobes (e.g., the ventral, dorso-lateral, and anterior lobes) were removed and weighed to measure absolute weights. Relative weights of prostate and individual lobes were calculated by dividing the absolute weight by the total body weight of the […]. Relative weights of the entire prostate, the dorsal prostate, and the ventral prostate were calculated by dividing the absolute weight by the total weight of the mouse. The histomorphology of the prostate was also analyzed and compared to that of the control or untreated prostate.

[2] = system: BPH-1; test: Antiproliferation assay 3 days, BPH-1 cells; format: cell-based; details: 3 day treatment; read-out: BPH-1 cell line IC50
Experimental: (§1) To determine the effect of lonidamine analogs thereof on cell proliferation, the antiproliferative activity of these compounds was tested in a multi-well Alamar Blue based assay (at 3 days). Cell growth in the presence and absence of the test compound was compared, as measured by a fluoresence plate reader at excitation 550 nm and emission 590 nm (see Biosource International Inc., Tech Application Notes, Use of Alamar Blue in the measurement of Cell Viability and Toxity, Determining IC50). The following cell lines were tested: PWR-1E cells ((ATCC CRL-11611), 3500 cells/well/200 μl in Keratinocyte SFM medium (Gibco Products, Invitrogen Corporation, Carlsbad, Calif.)); DU-145 cells ((ATCC HTB-81), 4000 cells/well/200 μl in MEM Eagles medium (ATCC, Manassas, Va.)); PC3 cells ((ATCC CRL-1435), 4000 cells/200 μl in Modified HAM's F12 medium (ATCC, Manassas, Va.)); PNt2 cells ((Sigma-Aldrich, 95012613-1 VL), 4000 cells/well/200 μl in RPMI medium (Gibco Products, Invitrogen Corporation, Carlsbad, Calif.), BPH-1 ((DSMZ ACC-143), 4000 cells/well/200 μl in RPMI medium (Gibco Products, Invitrogen Corporation, Carlsbad, Calif), and NCI-H460 cells ((ATCC HTB-177), 4000 cells/well/200 μl in RPMI medium (Gibco Products, Invitrogen Corporation, Carlsbad, Calif.)). The cells were seeded in a 96 well plate in a medium specified above. After 24 hours, these plates were divided into 2 groups—Control group and 3 day treatment group. A test compound was added to each plate in the treatment groups at concentrations of […] as tabulated in Table 1 (in 2 μl 1 of 100% DMSO, final DMSO concentration 1% in all wells). For NCI-H460 cells, test compounds were added to each plate in the treatment groups at concentrations of 600, 300, 100, 30, 10, 3, and 1 μM (in 2 μl of 100% DMSO, final DMSO concentration 1% in all wells). The cells in the 3 day treatment group were incubated for 3 days, followed by staining with AlamarBlue. In the Control group, AlamarBlue was added to the plate at (i) day 0 and (ii) day 3 and measured to establish the control reading. […] For the NCI-H460 cells, the capacity of the cells to proliferate was measured 5 hours after addition of AlamarBlue using the same fluorescence plate reader as stated above.

[3] = system: mouse prostate; test: Mouse study, 5 days oral, prostate weight and histomorphology; format: in vivo; details: C57B1/6J mice
Experimental: The effect of Compound 1 on the mouse prostate was determined as follows. Compound 1 was orally administered daily for 5 days to male, C57B1/6J mice, (n=5, 6-8 weeks old) 1 at 2, 5, and 20 mg/kg (as a 1% carboxymethylcellulose formulation). The control mice received an equal amount of the vehicle (carboxymethylcellulose). On day 6 the mice were sacrificed and the entire prostate and the individual lobes (e.g., the dorsal lobe and the ventral lobe) were weighed to measure absolute weights. Relative weights of prostate and individual lobes were calculated by dividing the absolute weight by the total weight of the mouse. Relative weights of the entire prostate, the dorsal prostate, and the ventral prostate were calculated by dividing the absolute weight by the total weight of the mouse. Both the absolute entire prostate and relative entire prostate weights reduced in the 5 and 20 mg/kg groups compared to the control group. The histomorphology of the prostate was also analyzed and compared to that of the control or untreated prostate as illustrated in FIGS. 1-3, showing […].

[4] = system: testes; test: 5 day systemic administration in male SH rats, testis; format: in vivo, rat; details: male SH rats, oral daily for 5 days at 50 mg/ml, day 6
[5] = system: mouse prostate cells; test: In vivo viability and proliferation of mouse prostate cells (TUNEL, PCNA); details: mice treated with 20 mg/kg, with respect to vehicle
Experimental: Prostate cells harvested from mice treated with 20 mg/kg of Compound I were assayed by the TUNEL assay (e.g., see Example 48).

[6] = system: PWR-1E cells; test: Antiproliferation assay 3 days, PWR-1E cells (Example 49); format: cell-based; details: 3 day treatment; read-out: PWR1e cell line IC50
Experimental: as §1

[7] = system: mouse prostate; test: Mouse study, 10 days oral, prostate weight; format: in vivo; details: C57B1/6J mice, oral daily for 10 days, 0.2-20 mg/kg
Experimental: The control mice received an equal amount of the vehicle (carboxymethylcellulose). […] Relative weights of entire prostate and individual lobes were calculated by dividing the corresponding absolute weight by the total weight of the mouse. Relative weights of the entire prostate, the dorsal prostate, and the ventral prostate were calculated by dividing the absolute weight by the total weight of the mouse. Relative weights of the left and right testis were calculated by dividing the corresponding absolute weights by the total weights of the mouse.

[8] = system: CD-1 mice; test: Tolerance study in CD-1 mice; format: in vivo, mouse
From the text: The toxicological end-points in this study were standard clinical observations such as changes in movement, breathing, food consumption, mortality and decreased body weight.

[9] = system: PNt2 cells; test: Antiproliferation assay 3 days, PNt2 cells; format: cell-based; details: 3 day treatment; read-out: PNT2c cell line IC50
Experimental: as §1

[10] = oral daily for 5 days, 5 and 20 mg/kg groups vs control

## O=C(NO)c1nn(Cc2ccc(Cl)cc2Cl)c2ccccc12 [Compound 1]
[1]
  Prostate shrinkage: −4.8%
[2]
  pIC50: 4.76
[3]; oral daily for 5 days, 2, 5, 20 mg/kg
  histomorphology of the prostate: dose-dependent disorganization of the epithelial cells
[3]; [10]
  absolute entire prostate weight: reduced
  relative entire prostate weight: reduced
[4]
  Testis shrinkage: −2.5%
[5]
  apoptosis of prostate cells (TUNEL assay): more apoptotic
  cell cycle inhibition (PCNA assay): greater cell cycle inhibition
[6]
  pIC50: 5.28
[7]
  absolute dorsal prostate weight (FIG. 10): dose dependent reduction
  absolute ventral prostate weight (FIG. 9): dose dependent reduction
  absolute whole prostate weight (FIG. 11): dose dependent reduction
  prostate weight: dose dependent reduction
  relative dorsal prostate weight (FIG. 7): dose dependent reduction
  relative ventral prostate weight (FIG. 8): dose dependent reduction
  relative whole prostate weight (FIG. 6): dose dependent reduction
[8]; CD-1 mice, oral dosing for 5 days
  tolerated dose: 500 mg/kg/day
[8]; mice, when used for prostate weight reduction
  therapeutic index compared to lonidamine: 10 fold
[9]
  pIC50: 4.77

Source: patent US20070015771A1, “Lonidamine analogs” (Threshold pharmaceuticals, Inc., priority 2004, published 2007)
